In PubChem BioAssay AID256 (DTP/NCI, 2004):
Inconclusive results and toxic doses are left out. The calls were made as follows: active = survival T/C of 150% or more; inactive = T/C below 125% in these data.

System: CD2F1 mice, L1210 leukemia ip, survival T/C
Assay: NCI In Vivo Anticancer Drug Screen. Data for tumor model L1210 Leukemia (intraperitoneal) in CD2F1 (CDF1) mice
Details: higher = longer survival
Outline: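 Compound-dosed mice with transplantable tumor versus matched vehicle controls; endpoint ratio T/C reported.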

[1] = endpoint: mean survival time, dose: 100.0 mg/kg/injection, schedule: Q04DX002 (ip), vehicle: saline with Tween-80
[2] = endpoint: mean survival time, dose: 200.0 mg/kg/injection, schedule: Q04DX002 (ip), vehicle: saline with Tween-80
[3] = endpoint: mean survival time, dose: 100.0 mg/kg/injection, schedule: Q01DX001 (ip), vehicle: saline with Tween-80
[4] = endpoint: mean survival time, dose: 200.0 mg/kg/injection, schedule: Q01DX001 (ip), vehicle: saline with Tween-80
[5] = endpoint: mean survival time, dose: 400.0 mg/kg/injection, schedule: Q01DX001 (ip), vehicle: saline with Tween-80
[6] = endpoint: mean survival time, dose: 50.0 mg/kg/injection, schedule: Q01DX009 (ip), vehicle: saline with Tween-80
[7] = endpoint: mean survival time, dose: 100.0 mg/kg/injection, schedule: Q01DX009 (ip), vehicle: saline with Tween-80
[8] = endpoint: mean survival time, dose: 200.0 mg/kg/injection, schedule: Q01DX009 (ip), vehicle: saline with Tween-80
[9] = endpoint: mean survival time, dose: 100.0 mg/kg/injection, schedule: Q01DX009 (ip), vehicle: Klucel (hydroxypropylcellulose) (HPC)
[10] = endpoint: mean survival time, dose: 200.0 mg/kg/injection, schedule: Q01DX009 (ip), vehicle: Klucel (hydroxypropylcellulose) (HPC)
[11] = endpoint: mean survival time, dose: 400.0 mg/kg/injection, schedule: Q01DX009 (ip), vehicle: Klucel (hydroxypropylcellulose) (HPC)
[12] = endpoint: mean survival time, dose: 100.0 mg/kg/injection, schedule: Q04DX003 (ip), vehicle: saline with Tween-80
[13] = endpoint: mean survival time, dose: 200.0 mg/kg/injection, schedule: Q04DX003 (ip), vehicle: saline with Tween-80

Measured: T/C

O=C(COc1ccc(F)cc1F)OC(=O)COc1ccc(F)cc1F
inactive: [1] 92 % of control | [2] 89 % of control | endpoint: mean survival time, dose: 400.0 mg/kg/injection, schedule: Q04DX002 (ip), vehicle: saline with Tween-80 89 % of control

Nc1nc2c(ncn2-c2ccc(OCCNC(=O)Nc3ccc(S(=O)(=O)F)cc3)cc2)c(=O)[nH]1
inactive: [3] 95 % of control | [4] 94 % of control | [5] 94 % of control

O=C(C(=Nc1ccccc1)c1ccccc1)c1ccccc1
inactive: [6] 100 % of control | [7] 97 % of control | [8] 97 % of control

O=[N+]([O-])c1ccc2c(c1)-c1[nH]c3ccccc3c1CS2
inactive: [9] 102 % of control | [10] 101 % of control

COP(=O)(O)OCC1OC(n2cnc3c(N)ncnc32)C(O)C1O (stereo unspecified)
inactive: endpoint: mean survival time, dose: 12.5 mg/kg/injection, schedule: Q01DX005 (ip), vehicle: distilled water + Tween-80 96 % of control | endpoint: mean survival time, dose: 25.0 mg/kg/injection, schedule: Q01DX005 (ip), vehicle: distilled water + Tween-80 102 % of control | endpoint: mean survival time, dose: 50.0 mg/kg/injection, schedule: Q01DX005 (ip), vehicle: distilled water + Tween-80 106 % of control | endpoint: mean survival time, dose: 100.0 mg/kg/injection, schedule: Q01DX005 (ip), vehicle: distilled water + Tween-80 100 % of control | endpoint: mean survival time, dose: 200.0 mg/kg/injection, schedule: Q01DX005 (ip), vehicle: distilled water + Tween-80 106 % of control

CS/C(N)=N\C(=S)Nc1ccccc1
inactive: [7] 103 % of control | [8] 103 % of control | endpoint: mean survival time, dose: 400.0 mg/kg/injection, schedule: Q01DX009 (ip), vehicle: saline with Tween-80 101 % of control

O=C(OC(=O)c1cccc(-c2ccccc2)c1)c1cccc(-c2ccccc2)c1
inactive: [9] 109 % of control | [10] 100 % of control | [11] 97 % of control

O=NN(CCCl)C(=O)Oc1ccc(OC(=O)N(CCCl)N=O)cc1
inactive: endpoint: median survival time, dose: 3.12 mg/kg/injection, schedule: Q01DX009 (ip), vehicle: Klucel (hydroxypropylcellulose) (HPC) 104 % of control | endpoint: median survival time, dose: 6.25 mg/kg/injection, schedule: Q01DX009 (ip), vehicle: Klucel (hydroxypropylcellulose) (HPC) 114 % of control | endpoint: median survival time, dose: 12.5 mg/kg/injection, schedule: Q01DX009 (ip), vehicle: Klucel (hydroxypropylcellulose) (HPC) 118 % of control | endpoint: median survival time, dose: 25.0 mg/kg/injection, schedule: Q01DX009 (ip), vehicle: Klucel (hydroxypropylcellulose) (HPC) 113 % of control | endpoint: median survival time, dose: 50.0 mg/kg/injection, schedule: Q01DX009 (ip), vehicle: Klucel (hydroxypropylcellulose) (HPC) 93 % of control

O=C(CCl)Nc1ccc(Cl)cc1
inactive: endpoint: mean survival time, dose: 25.0 mg/kg/injection, schedule: Q01DX009 (ip), vehicle: Klucel (hydroxypropylcellulose) (HPC) 97 % of control | endpoint: mean survival time, dose: 50.0 mg/kg/injection, schedule: Q01DX009 (ip), vehicle: Klucel (hydroxypropylcellulose) (HPC) 96 % of control | endpoint: mean survival time, dose: 50.0 mg/kg/injection, schedule: Q04DX003 (ip), vehicle: Klucel (hydroxypropylcellulose) (HPC) 97 % of control | endpoint: mean survival time, dose: 100.0 mg/kg/injection, schedule: Q04DX003 (ip), vehicle: Klucel (hydroxypropylcellulose) (HPC) 100 % of control | [12] 106 % of control

COc1ccc(OCCOC(=O)Nc2ccc(C)c([N+](=O)[O-])c2)cc1
inactive: [6] 92 % of control | [7] 88 % of control | [8] 92 % of control

c1cncc(-c2nnc(-c3cccnc3)o2)c1
inactive: endpoint: mean survival time, dose: 1.56 mg/kg/injection, schedule: Q04DX002 (ip), vehicle: saline with Tween-80 101 % of control | endpoint: mean survival time, dose: 3.13 mg/kg/injection, schedule: Q04DX002 (ip), vehicle: saline with Tween-80 104 % of control | endpoint: mean survival time, dose: 6.25 mg/kg/injection, schedule: Q04DX002 (ip), vehicle: saline with Tween-80 104 % of control | endpoint: mean survival time, dose: 12.5 mg/kg/injection, schedule: Q04DX002 (ip), vehicle: saline with Tween-80 104 % of control | [1] 87 % of control | [2] 87 % of control

OCC1OC(O)C(O)C(O)C1O (stereo unspecified)
inactive: endpoint: mean survival time, dose: 100.0 mg/kg/injection, schedule: Q04DX003 (ip), vehicle: saline 103 % of control | endpoint: mean survival time, dose: 200.0 mg/kg/injection, schedule: Q04DX003 (ip), vehicle: saline 98 % of control | endpoint: mean survival time, dose: 400.0 mg/kg/injection, schedule: Q04DX003 (ip), vehicle: saline 98 % of control

CC(C)=CC(C)OC(=O)N(C)C (stereo unspecified)
inactive: [12] 97 % of control | [13] 94 % of control

C(=NCC1CCC(CN=Cc2ccco2)CC1)c1ccco1 (stereo unspecified)
inactive: [3] 107 % of control | [4] 101 % of control | [5] 101 % of control

CC(C)(C)SC1C(O)C(CO)OC1n1ccc(Nc2ccccc2)nc1=O (stereo unspecified)
inactive: endpoint: median survival time, dose: 12.5 mg/kg/injection, schedule: Q01DX005 (ip), vehicle: saline with Tween-80 99 % of control | endpoint: median survival time, dose: 25.0 mg/kg/injection, schedule: Q01DX005 (ip), vehicle: saline with Tween-80 99 % of control | endpoint: median survival time, dose: 50.0 mg/kg/injection, schedule: Q01DX005 (ip), vehicle: saline with Tween-80 102 % of control | endpoint: median survival time, dose: 100.0 mg/kg/injection, schedule: Q01DX005 (ip), vehicle: saline with Tween-80 104 % of control | endpoint: median survival time, dose: 200.0 mg/kg/injection, schedule: Q01DX005 (ip), vehicle: saline with Tween-80 90 % of control

Cc1ccc(/C=C(/F)OC(C)(C)C)cc1
inactive: endpoint: mean survival time, dose: 50.0 mg/kg/injection, schedule: Q01DX001 (ip), vehicle: saline with Tween-80 97 % of control | [3] 101 % of control | [4] 100 % of control

COc1ccc(C[C@H](N)C(=O)NC2C(CO)OC(n3cnc4c(N(C)C)ncnc43)C2O)cc1 (stereo partly specified)
inactive: endpoint: median survival time, dose: 25.0 mg/kg/injection, schedule: Q01DX005 (ip), vehicle: water 104 % of control | endpoint: median survival time, dose: 50.0 mg/kg/injection, schedule: Q01DX005 (ip), vehicle: water 111 % of control | endpoint: median survival time, dose: 100.0 mg/kg/injection, schedule: Q01DX005 (ip), vehicle: water 100 % of control

Cc1cc(N(C)C)ccc1N=Nc1cc[n+]([O-])c(C)c1
inactive: endpoint: mean survival time, dose: 25.0 mg/kg/injection, schedule: Q01DX009 (ip), vehicle: saline with Tween-80 103 % of control | [6] 108 % of control | [7] 103 % of control | [12] 104 % of control | [13] 102 % of control | endpoint: mean survival time, dose: 400.0 mg/kg/injection, schedule: Q04DX003 (ip), vehicle: saline with Tween-80 104 % of control

O=C1C=CC(=O)N1c1ccc(O)cc1
inactive: endpoint: mean survival time, dose: 1.25 mg/kg/injection, schedule: Q01DX009 (ip), vehicle: saline with Tween-80 100 % of control | endpoint: mean survival time, dose: 2.5 mg/kg/injection, schedule: Q01DX009 (ip), vehicle: saline with Tween-80 98 % of control | endpoint: mean survival time, dose: 5.0 mg/kg/injection, schedule: Q01DX009 (ip), vehicle: saline with Tween-80 93 % of control | endpoint: mean survival time, dose: 5.0 mg/kg/injection, schedule: Q04DX003 (ip), vehicle: saline with Tween-80 98 % of control

CCCCCCCCCCCCCCCCCC[Se][Se]CCCCCCCCCCCCCCCCCC
inactive: endpoint: mean survival time, dose: 25.0 mg/kg/injection, schedule: Q04DX003 (ip), vehicle: saline with Tween-80 93 % of control | endpoint: mean survival time, dose: 50.0 mg/kg/injection, schedule: Q04DX003 (ip), vehicle: saline with Tween-80 95 % of control | [12] 95 % of control

Cc1ccc(NC(=O)Oc2cc(C)c(Cl)cc2C)c([N+](=O)[O-])c1
inactive: [9] 106 % of control | [10] 95 % of control | [11] 92 % of control
